What was measured:
[1] = Brain to plasma partition coefficient, Kp of the compound in rat; assay type: ADME, organism-based; settings: brain and plasma
in vivo = settings: rat, brain and plasma
Description: Unbound brain-to-plasma concentration ratio in rat

Compound	Kp [1]	Kp uu (in vivo)
CN(C)CCCN1c2ccccc2Sc2ccc(Cl)cc21 [CHLORPROMAZINE]	8.5	0.9
CN1CCN(C2=Nc3cc(Cl)ccc3Nc3ccccc32)CC1 [CLOZAPINE]	8.5	0.9
O=C(CCCN1CCC(O)(c2ccc(Cl)cc2)CC1)c1ccc(F)cc1 [HALOPERIDOL]	8.5	0.9
OCCOCCN1CCN(C2=Nc3ccccc3Sc3ccccc32)CC1 [QUETIAPINE]	8.5	0.9
Cc1nc2n(c(=O)c1CCN1CCC(c3noc4cc(F)ccc34)CC1)CCCC2 [RISPERIDONE]	8.5	0.9
O=C1Cc2cc(CCN3CCN(c4nsc5ccccc45)CC3)c(Cl)cc2N1 [ZIPRASIDONE]	8.5	0.9

From ChEMBL document CHEMBL4373730, “Practical approaches to evaluating and optimizing brain exposure in early drug discovery” (Eur J Med Chem, 2019)
